Source: ChEMBL document CHEMBL4325881, “Facile synthesis of 2-aryl 5-hydroxy benzo[d]oxazoles and their in vitro anti-proliferative effects on various cancer cell lines” (Bioorg Med Chem Lett, 2018)
The source made the active and inactive calls. The rule behind the calls is not given here.

What was measured:
HaCaT = assay: Cytotoxicity against human HaCaT cells assessed as reduction in cell viability after 48 hrs by MTT assay; assay type: cell-based
A549 = assay: Cytotoxicity against human A549 cells assessed as reduction in cell viability after 48 hrs by MTT assay; assay type: functional, cell-based; conditions: A549, 48 h
HepG2 [1] = assay: Cytotoxicity against human HepG2 cells assessed as reduction in cell viability after 48 hrs by MTT assay; assay type: functional, cell-based; conditions: HepG2, 48 h
[2] = Cytotoxicity against human […] cells assessed as reduction in cell viability after 48 hrs by MTT assay; assay type: functional, cell-based
HeLa = assay: Cytotoxicity against human HeLa cells assessed as reduction in cell viability after 48 hrs by MTT assay; assay type: functional, cell-based
HepG2 [3] = assay: Induction of apoptosis in human HepG2 cells assessed as mitochondrial depolarized cells level at 1 uM after 48 hrs by JC-1 staining based flow cytometric method (reference value: […]); assay type: functional
HepG2 [4] = assay: Cell cycle arrest in human HepG2 cells assessed as accumulation at G0/G1 phase at 1 uM after 24 hrs by propidium iodide staining based flow cytometric analysis (reference value: 49.93%); assay type: functional
HepG2 [5] = assay: Induction of apoptosis in human HepG2 cells assessed as increase in loss of mitochondrial membrane potential after 48 hrs by JC-1 staining based flow cytometric method; assay type: functional, cell-based
MDA-MB-231 = assay: Cytotoxicity against human MDA-MB-231 cells assessed as reduction in cell viability after 48 hrs by MTT assay; assay type: functional, cell-based; conditions: MDA-MB-231, 48 h
HepG2 [6] = assay: Cell cycle arrest in human HepG2 cells assessed as accumulation at G2/M phase at 1 uM after 24 hrs by propidium iodide staining based flow cytometric analysis (reference value: 28.79%); assay type: functional
HepG2 [7] = assay: Induction of apoptosis in human HepG2 cells assessed as membrane blebbing after 48 hrs by acridine orange/ethidium bromide staining-based fluorescence microscopic analysis; assay type: functional, cell-based
HepG2 [8] = assay: Induction of apoptosis in human HepG2 cells assessed as viable cells at 1 uM after 48 hrs by annexin V-FITC/propidium iodide staining-based flow cytometry analysis (reference value: 98.14%); assay type: functional; conditions: HepG2, 48 h, read-out: Activity
HepG2 [9] = assay: Induction of apoptosis in human HepG2 cells assessed as late apoptotic cells at 0.5 uM after 48 hrs by annexin V-FITC/propidium iodide staining-based flow cytometry analysis (reference value: 0.26%); assay type: functional
HepG2 [10] = assay: Induction of apoptosis in human HepG2 cells assessed as fragmented nuclei at 0.5 to 2.5 uM after 48 hrs by DAPI staining-based fluorescence microscopic analysis; assay type: functional, cell-based
HepG2 [11] = assay: Induction of apoptosis in human HepG2 cells assessed as mitochondrial polarized cells level at 0.5 uM after 48 hrs by JC-1 staining based flow cytometric method (reference value: 93.02%); assay type: functional
HepG2 [12] = assay: Cell cycle arrest in human HepG2 cells assessed as accumulation at G2/M phase at 2.5 uM after 24 hrs by propidium iodide staining based flow cytometric analysis (reference value: 28.79%); assay type: functional
HepG2 [13] = assay: Induction of apoptosis in human HepG2 cells assessed as necrotic cells at 2.5 uM after 48 hrs by annexin V-FITC/propidium iodide staining-based flow cytometry analysis (reference value: 0.62%); assay type: functional
HepG2 [14] = assay: Induction of apoptosis in human HepG2 cells assessed as viable cells at 2.5 uM after 48 hrs by annexin V-FITC/propidium iodide staining-based flow cytometry analysis (reference value: 98.14%); assay type: functional; conditions: HepG2, 48 h, read-out: Activity
HepG2 [15] = assay: Cell cycle arrest in human HepG2 cells assessed as accumulation at G0/G1 phase at 2.5 uM after 24 hrs by propidium iodide staining based flow cytometric analysis (reference value: 49.93%); assay type: functional
HepG2 [16] = assay: Induction of apoptosis in human HepG2 cells assessed as horse-shoe shaped nuclei at 0.5 to 2.5 uM after 48 hrs by DAPI staining-based fluorescence microscopic analysis; assay type: functional, cell-based
HepG2 [17] = assay: Induction of apoptosis in human HepG2 cells assessed as mitochondrial polarized cells level at 1 uM after 48 hrs by JC-1 staining based flow cytometric method (reference value: 93.02%); assay type: functional
HepG2 [18] = assay: Cell cycle arrest in human HepG2 cells assessed as accumulation at S phase at 2.5 uM after 24 hrs by propidium iodide staining based flow cytometric analysis (reference value: 7.57%); assay type: functional
HepG2 [19] = assay: Cell cycle arrest in human HepG2 cells assessed as accumulation at sub-G1 phase at 1 uM after 24 hrs by propidium iodide staining based flow cytometric analysis (reference value: 1.73%); assay type: functional
HepG2 [20] = assay: Cell cycle arrest in human HepG2 cells assessed as accumulation at sub-G1 phase at 2.5 uM after 24 hrs by propidium iodide staining based flow cytometric analysis (reference value: 1.73%); assay type: functional
HepG2 [21] = assay: Induction of apoptosis in human HepG2 cells assessed as late apoptotic cells at 1 uM after 48 hrs by annexin V-FITC/propidium iodide staining-based flow cytometry analysis (reference value: 0.26%); assay type: functional
HepG2 [22] = assay: Induction of apoptosis in human HepG2 cells assessed as late apoptotic cells at 2.5 uM after 48 hrs by annexin V-FITC/propidium iodide staining-based flow cytometry analysis (reference value: 0.26%); assay type: functional
HepG2 [23] = assay: Induction of apoptosis in human HepG2 cells assessed as reduction in number of viable cells at 0.5 to 2.5 uM after 48 hrs by inverted phase contrast microscopic analysis; assay type: functional, cell-based
HepG2 [24] = assay: Cell cycle arrest in human HepG2 cells assessed as accumulation at S phase at 1 uM after 24 hrs by propidium iodide staining based flow cytometric analysis (reference value: 7.57%); assay type: functional
HepG2 [25] = assay: Induction of apoptosis in human HepG2 cells assessed as viable cells at 0.5 uM after 48 hrs by annexin V-FITC/propidium iodide staining-based flow cytometry analysis (reference value: 98.14%); assay type: functional; conditions: HepG2, 48 h, read-out: Activity
HepG2 [26] = assay: Induction of apoptosis in human HepG2 cells assessed as early apoptotic cells at 1 uM after 48 hrs by annexin V-FITC/propidium iodide staining-based flow cytometry analysis (reference value: 0.98%); assay type: functional
HepG2 [27] = assay: Induction of apoptosis in human HepG2 cells assessed as mitochondrial depolarized cells level at 2.5 uM after 48 hrs by JC-1 staining based flow cytometric method (reference value: […]); assay type: functional
HepG2 [28] = assay: Induction of apoptosis in human HepG2 cells assessed as necrotic cells at 0.5 uM after 48 hrs by annexin V-FITC/propidium iodide staining-based flow cytometry analysis (reference value: 0.62%); assay type: functional
HepG2 [29] = assay: Induction of apoptosis in human HepG2 cells assessed as cell shrinkage at 0.5 to 2.5 uM after 48 hrs by inverted phase contrast microscopic analysis; assay type: functional, cell-based
HepG2 [30] = assay: Cell cycle arrest in human HepG2 cells assessed as accumulation at G0/G1 phase at 0.5 uM after 24 hrs by propidium iodide staining based flow cytometric analysis (reference value: 49.93%); assay type: functional
HepG2 [31] = assay: Anticlonogenic activity against human HepG2 cells incubated for 24 hrs followed by fresh media replacement and measured after 12 days by crystal violet staining based assay; assay type: functional, cell-based
HepG2 [32] = assay: Induction of apoptosis in human HepG2 cells assessed as cell shrinkage after 48 hrs by acridine orange/ethidium bromide staining-based fluorescence microscopic analysis; assay type: functional
HepG2 [33] = assay: Induction of apoptosis in human HepG2 cells assessed as apoptotic body formation after 48 hrs by acridine orange/ethidium bromide staining-based fluorescence microscopic analysis; assay type: functional, cell-based
HepG2 [34] = assay: Induction of apoptosis in human HepG2 cells assessed as mitochondrial depolarized cells level at 0.5 uM after 48 hrs by JC-1 staining based flow cytometric method (reference value: […]); assay type: functional
HepG2 [35] = assay: Induction of apoptosis in human HepG2 cells assessed as necrotic cells at 1 uM after 48 hrs by annexin V-FITC/propidium iodide staining-based flow cytometry analysis (reference value: 0.62%); assay type: functional
HepG2 [36] = assay: Induction of apoptosis in human HepG2 cells assessed as mitochondrial polarized cells level at 2.5 uM after 48 hrs by JC-1 staining based flow cytometric method (reference value: 93.02%); assay type: functional
HepG2 [37] = assay: Induction of apoptosis in human HepG2 cells assessed as early apoptotic cells at 2.5 uM after 48 hrs by annexin V-FITC/propidium iodide staining-based flow cytometry analysis (reference value: 0.98%); assay type: functional
HepG2 [38] = assay: Induction of apoptosis in human HepG2 cells assessed as early apoptotic cells at 0.5 uM after 48 hrs by annexin V-FITC/propidium iodide staining-based flow cytometry analysis (reference value: 0.98%); assay type: functional
HepG2 [39] = assay: Induction of ROS accumulation in human HepG2 cells after 48 hrs by DCF-DA staining based fluorescence microscopic analysis; assay type: functional, cell-based
HepG2 [40] = assay: Induction of apoptosis in human HepG2 cells assessed as chromatin condensation after 48 hrs by acridine orange/ethidium bromide staining-based fluorescence microscopic analysis; assay type: functional, cell-based
HepG2 [41] = assay: Induction of apoptosis in human HepG2 cells assessed as condensed nuclei at 0.5 to 2.5 uM after 48 hrs by DAPI staining-based fluorescence microscopic analysis; assay type: functional, cell-based
HepG2 [42] = assay: Induction of apoptosis in human HepG2 cells assessed as […] deformation at 0.5 to 2.5 uM after 48 hrs by inverted phase contrast microscopic analysis; assay type: functional, cell-based
HepG2 [43] = assay: Cell cycle arrest in human HepG2 cells assessed as accumulation at sub-G1 phase at 0.5 uM after 24 hrs by propidium iodide staining based flow cytometric analysis (reference value: 1.73%); assay type: functional
HepG2 [44] = assay: Induction of apoptosis in human HepG2 cells after 48 hrs by annexin V-FITC/propidium iodide staining-based flow cytometry analysis; assay type: functional, cell-based
HepG2 [45] = assay: Cell cycle arrest in human HepG2 cells assessed as accumulation at G2/M phase at 0.5 uM after 24 hrs by propidium iodide staining based flow cytometric analysis (reference value: 28.79%); assay type: functional
HepG2 [46] = assay: Cell cycle arrest in human HepG2 cells assessed as accumulation at S phase at 0.5 uM after 24 hrs by propidium iodide staining based flow cytometric analysis (reference value: 7.57%); assay type: functional

COc1cccc2c1C(=O)c1c(O)c3c(c(O)c1C2=O)C[C@@](O)(C(=O)CO)C[C@@H]3O[C@H]1C[C@H](N)[C@H](O)[C@H](C)O1 [DOXORUBICIN]
IC50 (HaCaT): 0.52 µM | IC50 (A549): 0.34 µM | IC50 (HepG2 [1]): 0.52 µM | IC50 [2]: 1.57 µM | IC50 (HeLa): 0.11 µM

O=Cc1c(O)ccc2oc(-c3cccc(Cl)c3)nc12
Activity (HepG2 [3]): 25.87% | Activity (HepG2 [4]): 50.36% | Activity (HepG2 [5]): Dose-dependent effect | IC50 (MDA-MB-231): 1.33 µM | Activity (HepG2 [6]): 27.15% | IC50 (HaCaT): 17.8 µM | Activity (HepG2 [7]): Dose-dependent effect | viability at 1 µM (HepG2 [8]): 63.4% | Activity (HepG2 [9]): 0.75% | Activity (HepG2 [10]): Active | Activity (HepG2 [11]): 85.46% | Activity (HepG2 [12]): 22.57% | IC50 (A549): 1.87 µM | Activity (HepG2 [13]): 2.01% | viability at 2.5 µM (HepG2 [14]): 40.2% | Activity (HepG2 [15]): 45.52% | Activity (HepG2 [16]): Active | Activity (HepG2 [17]): 74.54% | Activity (HepG2 [18]): 8.32% | Activity (HepG2 [19]): 5.64% | Activity (HepG2 [20]): 13.2% | IC50 (HepG2 [1]): 0.81 µM | IC50 [2]: 0.98 µM | Activity (HepG2 [21]): 0.55% | Activity (HepG2 [22]): 1.64% | Activity (HepG2 [23]): Active | Activity (HepG2 [24]): 5.53% | viability at 0.5 µM (HepG2 [25]): 83.3% | Activity (HepG2 [26]): 34.2% | Activity (HepG2 [27]): 71.49% | Activity (HepG2 [28]): 2.42% | Activity (HepG2 [29]): Active | Activity (HepG2 [30]): 59.01% | Activity (HepG2 [31]): Dose-dependent effect | Activity (HepG2 [32]): Dose-dependent effect | Activity (HepG2 [33]): Dose-dependent effect | Activity (HepG2 [34]): 14.91% | Activity (HepG2 [35]): 1.84% | Activity (HepG2 [36]): 29.19% | Activity (HepG2 [37]): 56.17% | Activity (HepG2 [38]): 12.5% | Activity (HepG2 [39]): Dose-dependent effect | Activity (HepG2 [40]): Dose-dependent effect | Activity (HepG2 [41]): Active | Activity (HepG2 [42]): Active | Activity (HepG2 [43]): 2.42% | Activity (HepG2 [44]): Dose-dependent effect | Activity (HepG2 [45]): 23.05% | Activity (HepG2 [46]): 6.61% | IC50 (HeLa): 2.18 µM

O=Cc1c(O)ccc2oc(-c3ccco3)nc12
IC50 (MDA-MB-231): > 30 µM | IC50 (HaCaT): > 30 µM | IC50 (A549): > 30 µM | IC50 (HepG2 [1]): > 30 µM | IC50 [2]: > 30 µM | IC50 (HeLa): > 30 µM
